Laboratory results: patent US12065447B2, “Heterocyclic amide for inhibiting RIP1 kinase and uses thereof” (SHANGHAI INSTITUTE OF MATERIA MEDICA, CHINESE ACADEMY OF …, priority 2018, dated 2024)

Columns and labels:
[1] = test system: TNFα induced systemic inflammatory response syndrome (SIRS); test: TNFα induced C57BL/6 mouse systemic inflammatory response syndrome (SIRS) model (hypothermic shock); assay type: in vivo; conditions: mTNFα 5 μg/mouse tail vein, drug by gavage 15 min before modeling
Experimental: TNFα Induced C57BL/6 Mouse Systemic Inflammatory Response Syndrome (SIRS) Model
Source, stirp and strain: C57BL/6 pure mouse, female, 18-20 g, purchased from Shanghai Lingchang Biotechnology Co., Ltd., license No. SCXK (Shanghai) 2013-0018. The animals were bred in the SPF animal room of Building No. 2 of the Shanghai institute of Materia Medica, and the experimental animal use license number is SYXK (Shanghai) 2013-0049. The animals were bred for at least one week before use at 22±1° C. with a humidity of 55±5% and 12 h light and dark cycle. Both feed and water are freely ingested by the animals after disinfection. All experiments were carried out in strict accordance with the relevant regulations on experimental animals.
2. Test Reagents and Materials: • 1) Recombinant Mouse mTNFα was purchased from Shanghai JIN′AN Biological Company. • 2) Experimental materials: 1.5 mL centrifuge tubes were purchased from Axygen Company, 15 mL and 50 mL centrifuge tubes were purchased from Corning Company; commonly used surgical instruments (ophthalmic scissors, large tweezers, small tweezers, tissue scissors) and 1 mL, 2 mL, and 10 mL disposable plastic dispensers were purchased from Sinopharm Chemical Reagent Co., Ltd.; pipettes of various specifications were purchased from Eppendorf Company; tips of various specifications were purchased from Axygen and Sartoruris Company. • 3) Experimental equipments: the syringe adopts omnican insulin syringes, a disposable syringe adopts sterile insulin syringe with a product number of 9161635, and an outer diameter and length of the needle tube of 0.30*8 mm; the mouse tail vein syringe is model YLS-Q9G purchased from Jinan Yyan Technology Development Co., Ltd.; Laboratory animal rectal temperature measuring instrument was model ALC-ET06 purchased from Shanghai Alcott Biotechnology Co., Ltd.
3. Reagents and Compound Preparation Methods: • 1) Recombinant Mouse mTNFα: mTNFα lyophilized powder was dissolved in PBS to prepare a stock solution of 200 μg/mL, and stored in a refrigerator at −20° C. after sub-packaging. The stock solution was put in a refrigerator at 4° C. overnight to reach dissolution equilibrium when in use. […] The drug concentration was determined comprehensively according to the results of in vitro experiments and the pharmacokinetic properties.
4. […] Therefore, the model with tail vein injection of TNFα was selected as the classic model for an animal level screen of RIP1 inhibitor. • 2) Experimental process: • a) The experimental animals were randomly grouped according to their body weight one day in advance, and there are 8 animals in each group. • b) On the day of the experiment, mTNFα and sterile PBS were diluted according to the above method, sucked into an insulin syringe at 125 μl/piece, that is, 5 μg/mice. • c) The drug was administered 15 min before modeling by gavage at 0.2 mL/mouse. • d) 15 min after administration, the modeling was started by injection of PBS or mTNFα into the tail vein, the injection was conducted according to the above dose. • e) After modeling, the rectal temperature was measured every 1 h and the survival rate was measured.
5. Testing Indicators: • 1) Animal body temperature: The rectal temperature was measured every 1 h after modeling. […]

[2] = Study on oral pharmacokinetics in rats; assay type: in vivo; conditions: rat, plasma, male SD rats, 3 mg/kg by gavage, average; for AUC(0-inf): extrapolated to infinity, read-out: AUCINF_obs; for MRT inf: read-out: Average residence time MRTINF_obs; for half-life: read-out: Half life T1/2 (converted); for Cmax: read-out: Peak plasma concentration Cmax
Experimental: Study on Oral Pharmacokinetics in Rats • 1. […] The pharmacokinetic behaviors of the compounds of the present invention in rats were studied, and the pharmacokinetic properties of the compounds were evaluated. • 2. The test animals are healthy adult male SD rats, 3 in each group. • 3. […] Liquid chromatography tandem mass spectrometry (LC-MS/MS) was used to determine the plasma concentration of test compounds in rat after intragastrical administration of different compounds.

Row | SMILES | Survival rate [1] [%] | AUC(0-t) [2] [ng·h/mL] | AUC(0-inf) [2] [ng·h/mL] | MRT inf [2] [h] | half-life [2] [h] | Cmax [2] [ng/mL]
1 | CN1C(=O)[C@@H](NC(=O)c2n[nH]c(Cc3ccccc3)n2)COc2ccccc21 [GSK2982772, reference compound] | 100 |  |  |  |  | 
2 | Cc1c(C#Cc2cnn(C)c2)sc2c1SC[C@H](NC(=O)c1nnc(Cc3ccccc3)[nH]1)C(=O)N2C [ZB-R-39] |  | 1680 | 1700 | 4.07 | 3.46 | 525
3 | CN1C(=O)[C@@H](NC(=O)c2n[nH]c(Cc3ccccc3)n2)COc2ccc(C#Cc3ccccn3)cc21 [ZB-R-50] | 100 | 3110 | 3120 | 2.2 | 1.56 | 1450
4 | CN1C(=O)[C@@H](NC(=O)c2n[nH]c(Cc3ccccc3)n2)COc2ccc(C#Cc3cccnc3)cc21 [ZB-R-51] |  | 4210 | 4290 | 2.8 | 1.79 | 1360
5 | CN1C(=O)[C@@H](NC(=O)c2n[nH]c(Cc3ccccc3)n2)COc2ccc(C#Cc3ccncc3)cc21 [ZB-R-52] |  | 1560 | 1560 | 1.61 | 0.81 | 755
6 | CN1C(=O)[C@@H](NC(=O)c2n[nH]c(Cc3ccccc3)n2)COc2ccc(C#Cc3cnn(C)c3)cc21 [ZB-R-53] | 100 | 4500 | 4650 | 2.41 | 1.54 | 1760
7 | CN1C(=O)[C@@H](NC(=O)c2n[nH]c(Cc3ccccc3)n2)COc2ccc(C#CC3CCOCC3)cc21 [ZB-R-54] | 100 | 1240 | 1250 | 2 | 1.14 | 667
8 | CN1C(=O)[C@@H](NC(=O)c2n[nH]c(Cc3ccccc3)n2)COc2ccc(C#CC3CC3)cc21 [ZB-R-55] | 100 | 25700 | 26100 | 7.23 | 3.71 | 2900
